Entries after “also recorded” stand apart in the source; their conditions may differ.
What was measured:
[1] = test system: human bronchus normal cell line BEAS-2B; test: In vitro cytotoxicity assay (resazurin); format: cell-based; details: 24 h
Protocol: The human bronchus normal cell line BEAS-2B (ATCC CRL-9609) and the human lung carcinoma cell line A549 (ATCC CRL-185) were kind gifts from the laboratories of Dr. Matthew S. Gentry (University of Kentucky, Lexington, KY, USA) and Dr. David K. Orren (University of Kentucky, Lexington, KY, USA). The mammalian cells were grown in Dulbecco's Modified Eagle's Medium (DMEM) (from ATCC) with 10% fetal bovine serum (FBS) (from ATCC) and 1% Pen/Strep (from ATCC). Cell lines were cultured at 37° C. with 5% CO2 and passaged by trypsinization with 0.05% trypsin:0.53 mM EDTA (from ATCC). Cell confluency was determined by using a Nikon Eclipse TS100 microscope (Minato, Tokyo, Japan).
Cytotoxicity assays were performed as previously described with slight modifications. A549 and BEAS-2B cells were first thawed from stocks and grown. The confluent cells were transferred to a 96-well microtiter plates at density of 3000 cells/well. The 96-well plates were incubated at 37° C. with 5% CO2 overnight. […] The stock solutions were serially diluted in 1.5 mL eppendorf tubes to achieve concentrations of 31-0.12 mg/mL. 1 μL of these 1000× compound stock solutions was then added to 999 μL of DMEM medium in 1.5 mL eppendorf tubes to obtain final concentrations of 31-0.12 μg/mL. […] The 96-well plates were further incubated for 24 h at 37° C. with 5% CO2. To evaluate cell survival, each well was treated with 10 μL (25 mg/L) of resazurin sodium salt (Sigma-Aldrich, St. Louis, MO, USA) and incubated for another 6 h. Metabolically active cells can convert resazurin to the highly fluorescent dye, resorufin, and be detected at A560 excitation and A590 emission using a SpectraMax M5 plate reader (Molecular Devices, San Jose, CA, USA). […] The percentage survival rates were calculated by using the following formula: % cell survival=[(fluorescence of sample)−(fluorescence of background)]×100/[(fluorescence of negative control)−(fluorescence of background)]. Experiments were done in duplicate.

[2] = test system: C. albicans ATCC 10231 (strain A); test: Time-kill assay; format: cell-based, Candida albicans
Text: (§1) To determine the fungistatic or fungicidal nature of the compounds, time-kill assays were next performed over a 24-hour period with 4,4′-bis((E)-1-(2-(4-fluorophenyl)hydrazono)ethyl)-1,1′-biphenyl (17c).
(§2) Time-kill assays were used to assess the inhibitory efficiency of compound 17c against two yeast strains, C. albicans ATCC 10231 (strain A) and C. albicans ATCC 64124 (strain B). The protocol for time-kill assays followed methods previously described with minor modifications. Yeast cultures were grown overnight in YPD medium at 35° C. with shaking at 200 rpm. A working stock of fungal cells was made by diluting cultures in RPMI 1640 medium to an OD600 of 0.125 (˜1×10^6 CFU/mL). From the working stock, 100 μL of cells were added to 4.9 mL of RPMI 1640 medium in sterile culture tubes, making the starting fungal cell concentration […]. Compounds were then added to the fungal cells. […] The treated fungal cultures were incubated at 35° C. with 200 rpm shaking for 24 h. Samples were aliquoted from the different treatments at regular time points (0, 3, 6, 9, 12, and 24 h) and plated in duplicate. For each time point, cultures were vortexed, 100 μL of culture were aspirated, and 10-fold serial dilutions were made in sterile ddH2O. From the appropriate dilutions, 100 μL of fungal suspension was spread onto PDA plates and incubated at 35° C. for 48 h before colony were counted. At 24 h, 50 μL of 1 mM resazurin in PBS was added to the treatments and incubated at 35° C. with 200 rpm shaking for 2 h in the dark for visual inspection (FIGS. 5A-D). Experiments were performed in duplicate.

[3] = test system: C. albicans ATCC 64124 (strain B); test: Time-kill assay; format: cell-based, Candida albicans
Text: as §1, §2

[4] = test system: C. albicans ATCC 64124 (strain B) biofilms; test: Biofilm disruption assay (XTT reduction); format: cell-based, Candida albicans
Protocol: (§3) Biofilms are complex communities of one or more species of microorganisms encased in extracellular polymeric substances and attached to not only a solid surface but also to each other. Because of their complex, matrix-like nature, antifungal agents are often unable to reach the pathogens embedded in these networks. […] This increase reflected some resistance of Candida biofilms against the bishydrazone 17c.
(§4) Biofilm disruption assays were performed to assess the effectiveness of compound 17c against sessile yeast cells for two representative yeast strains, C. albicans ATCC 10231 (strain A) and C. albicans ATCC 64124 (strain B). VOR was used as a positive control. Biofilm assays were performed in 96-well plates using XTT [2,3-bis(2-methoxy-4-nitro-5-sulfophenyl)-2H-tetrazolium-5-carboxanilide] to measure the viability of the biofilm as previously described. An overnight culture of the yeast cells was grown at 35° C. in YPD medium with shaking at 200 rpm. The overnight culture was diluted in RPMI 1640 medium to an OD600 between 0.12 and 0.15 to make a working stock. The working stock was transferred to 96-well plates in 100 μL aliquots, leaving one column empty for the sterile controls. […] 80 μL of liquid from each well was transferred to new plates, which were then read for absorbance at 450 nm with a SpectraMax M5 plate reader (Molecular Devices, Sunnyvale, CA, USA). […]

[5] = test system: C. albicans ATCC 10231 (strain A) biofilms; test: Biofilm disruption assay (XTT reduction); format: cell-based, Candida albicans
Protocol: as §3, §4

Question: For COc1ccc(N/N=C/c2ccc(-c3cccc(/C=N/Nc4ccc(OC)cc4)c3)cc2)cc1 [Compound 15a], which “toxicity (in words)” value ([1]; BEAS-2B at 15.5 μg/mL) is on record?
Answer: Its value is “non-toxic”.

Question: Which “toxicity (in words)” value ([1]; BEAS-2B at 15.5 μg/mL) does the source give for COc1ccc(N/N=C/c2ccc(-c3ccc(/C=N/Nc4ccc(OC)cc4)cc3)cc2)cc1 [Compound 15b] here?
Answer: Its value is “non-toxic”.

Question: How did the “toxicity (in words)” value ([1]; BEAS-2B at 31 μg/mL) turn out when Fc1ccc(N/N=C/c2ccc(-c3cccc(/C=N/Nc4ccc(F)cc4)c3)cc2)cc1 [Compound 17a] was run?
Answer: The value was “non-toxic”.

Question: What does the source list for C/C(=N\Nc1ccc(F)cc1)c1ccc(-c2ccc(/C(C)=N/Nc3ccc(F)cc3)cc2)cc1 [Compound 17c, 4,4′-bis((E)-1-(2-(4-fluorophenyl)hydrazono)ethyl)-1,1′-biphenyl]?
Answer: reduction in fungal growth compared with VOR ([2]; 17c at one-half of the MIC value versus VOR at the MIC value): greater reduction in fungal growth; fungistatic or fungicidal nature ([2]; 24-hour period, 0.5x, 1x, 2x MIC): fungistatic; also recorded: more fungistatic than the control drug VOR; reduction in fungal growth compared with VOR ([3]; 17c at equal to or one-half of the MIC value versus VOR at the MIC value): greater reduction in fungal growth; fungistatic or fungicidal nature ([3]; 24-hour period, up to twice its MIC value): fungistatic; also recorded: more fungistatic than the control drug VOR; toxicity (in words) ([1]; BEAS-2B at 15.5 μg/mL): non-toxic; increase of SMIC values compared to planktonic MIC value [4]: 4- to 8 fold; increase of SMIC values compared to planktonic MIC value [5]: 4- to 16 fold

Question: Fc1ccc(N/N=C/c2ccc(-c3cccc(/C=N/Nc4ccc(F)cc4F)c3)cc2)c(F)c1 [Compound 20a] was tested. Which “toxicity (in words)” value ([1]; BEAS-2B at 15.5 μg/mL) did it give?
Answer: The value was “non-toxic”.

From patent publication US11851391B2, “Antifungal compounds and methods of forming the same” (University of Kentucky Research Foundation, priority 2018, dated 2023)
